Earlier results in US20110144198A1, “BREAST CANCER PROGNOSTICS” (ATLAS ANTIBODIES AB, priority 2008, published 2011).

Tests used:
ERα+/PR− tumors = details: follow-up period of 6 years
[1] = system: ERα positive (ERα+) patients

SMILES | recurrence rate compared to patients treated with tamoxifen (ERα+/PR− tumors) | fraction of ERα+ patients that do not respond to treatment [1]
CC(C)(C#N)c1cc(Cn2cncn2)cc(C(C)(C)C#N)c1 [anastrozole] | halved | –
CC/C(=C(\c1ccccc1)c1ccc(OCCN(C)C)cc1)c1ccccc1 [tamoxifen] | – | 30-40%
